Laboratory results reported in patent US20250195659A1, “T CELL MANUFACTURING COMPOSITIONS AND METHODS” (BIONTECH US INC., priority 2021, published 2025).

Test system: antigen specific CD8^+ T cells
Assay: IL-21 addition to NEO-STIM.RNA cultures
Format: cell-based, human
Excerpt: In order to improve the NEO-STIM protocol using RNA, IL-21 was explored as an addition to the protocol.

**Q.** “IL-21: cytokine added to the NEO-STIM RNA protocol” was tested. Which “hit rate, neoantigen specific frequency and cell expansion” value (NEO-PTC-01.RNA, healthy donor, day 14 read-out) did it give?
**A.** increased hit rate, neoantigen specific frequency and cell expansion

**Q.** What about the “central memory phenotype in antigen specific CD8^+ T cells” value (NEO-STIM) of the same substance?
**A.** increases central memory phenotype in antigen specific CD8^+ T cells

**Q.** What about the Tcm population (NEO-STIM.RNA) of the same substance?
**A.** increases Tcm population in our NEO-STIM.RNA cultures

**Q.** And the expansion of cultures (NEO-STIM.RNA)?
**A.** improves the expansion of NEO-STIM.RNA cultures

**Q.** And the “priming of specific T cells” value (NEO-STIM.RNA)?
**A.** improves the priming of specific T cells in NEO-STIM.RNA cultures
